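48-hour exposure; five concentrations; linearly interpolated endpoints. GI50 = concentration required for 50% inhibition of growth.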 Activity calls are given as the source filed them. Cut-off read from the data, not from the text of the source: active = GI50 up to about 1.1 µM and inactive = higher.

Twelve molecules from ChEMBL document CHEMBL1201862, “PubChem BioAssay data set” (2004) can be followed below.

Some test systems named below: MDA-MB-435; K562; SK-OV-3; TK-10; NCI-H522; SNB-19; OVCAR-3; HCT-15; OVCAR-4; SF-539; Malme-3M; SK-MEL-5; SNB-75; BT-549; PC-3; COLO 205; UACC-257; NCI/ADR-RES; UACC-62; DU-145.
Holding throughout (experiment): NCI-60 cell line screen, 48 h

Regarding `N#CC(CC(=O)O)=C(c1ccccc1)c1ccccc1`, the GI50 with MDA-MB-435, in the experiment with K562, with SK-OV-3, in the experiment on TK-10, in the experiment with NCI-H522 and in the experiment with SNB-19 was > 100 µM (inactive) throughout. Besides, the GI50 with OVCAR-3 is > 100 µM (inactive); in the experiment on HCT-15, greater than 100 µM; in the experiment on OVCAR-4, > 100 µM (inactive); in the experiment with SF-539, > 100 µM (inactive); in the experiment on Malme-3M it was > 100 µM (inactive); in the experiment on SK-MEL-5, > 100 µM (inactive). Also, the GI50 in the experiment with SNB-75, in the experiment with BT-549, with PC-3, in the experiment on COLO 205, in the experiment with UACC-257 and in the experiment with NCI/ADR-RES was > 100 µM (inactive) throughout. Also, the GI50 in the experiment with UACC-62 is > 100 µM (inactive).
Turning to `CN(C)CCN(C)P12(Oc3ccccc3O1)Oc1c(Cl)c(Cl)c(Cl)c(Cl)c1O2`, the GI50 in the experiment on MDA-MB-435 is 50.9 µM (inactive); in the experiment with K562 it was 35.6 µM (inactive); in the experiment on SK-OV-3, > 100 µM (inactive); in the experiment on TK-10, > 100 µM (inactive); with SNB-19, 56.6 µM (inactive); in the experiment with OVCAR-3 it was 27.9 µM (inactive). The GI50 was 40 µM in the experiment with HCT-15; 33.5 µM (inactive) with OVCAR-4; 46.6 µM (inactive) with Malme-3M; 58.6 µM (inactive) in the experiment with SK-MEL-5; 13.7 µM (inactive) in the experiment on SNB-75; 56.4 µM (inactive) in the experiment with BT-549. Besides, the GI50 is 33.7 µM (inactive) in the experiment on PC-3; > 100 µM (inactive) with COLO 205; 85.5 µM (inactive) in the experiment on DU-145; 29.5 µM (inactive) in the experiment on UACC-257; 35.8 µM (inactive) in the experiment on NCI/ADR-RES; 33.3 µM (inactive) in the experiment with UACC-62.
Take `CCCCOCCOCCOC1=C(Cl)C(=O)c2c(O)ccc(O)c2C1=O`: the GI50 in the experiment on K562 is 0.0419 µM (active); in the experiment on SK-OV-3, 4.25 µM (inactive); in the experiment on TK-10, 1.32 µM (inactive); in the experiment with SNB-19, 1.77 µM (inactive); with OVCAR-3, 0.877 µM (active); with HCT-15, 0.388 µM. For the same molecule, the GI50 in the experiment with OVCAR-4 was 0.359 µM (active); in the experiment with SF-539, 1.51 µM (inactive); in the experiment with Malme-3M, 1.46 µM (inactive); in the experiment with SK-MEL-5, 0.565 µM (active); in the experiment on SNB-75, 0.382 µM (active); with BT-549, 1.39 µM (inactive). For the same molecule, the GI50 was 1.62 µM (inactive) in the experiment with PC-3; 0.259 µM (active) in the experiment on COLO 205; 1.77 µM (inactive) in the experiment on DU-145; 0.766 µM (active) in the experiment with UACC-257; 1.97 µM (inactive) in the experiment on NCI/ADR-RES; 0.8 µM (active) in the experiment on UACC-62.
`Cc1cc(C)nc(NC(=S)Nc2ccc([N+](=O)[O-])cc2)c1`: the GI50 in the experiment with MDA-MB-435 was > 100 µM (inactive); in the experiment on K562, 45.2 µM (inactive); in the experiment with TK-10 it was > 100 µM (inactive); with SNB-19, > 100 µM (inactive); with HCT-15, greater than 100 µM; in the experiment on OVCAR-4 it was > 100 µM (inactive). Further, the GI50 in the experiment with SF-539, with SK-MEL-5, with SNB-75, with BT-549, in the experiment on PC-3 and in the experiment with COLO 205 was > 100 µM (inactive) throughout. The GI50 in the experiment with DU-145, in the experiment on UACC-257, in the experiment with NCI/ADR-RES and with UACC-62 was > 100 µM (inactive) each time.
Take `CCN(CC)CCn1c(C(C)(C)C)nc2ccccc21`: the GI50 in the experiment on K562 is > 100 µM (inactive); with SK-OV-3, > 100 µM (inactive); with TK-10 it was > 100 µM (inactive); in the experiment with NCI-H522, 38.6 µM (inactive); with SNB-19 it was > 100 µM (inactive); in the experiment on OVCAR-3 it was > 100 µM (inactive). Further, the GI50 with HCT-15 was greater than 100 µM; with OVCAR-4, > 100 µM (inactive); with SF-539, > 100 µM (inactive); in the experiment with Malme-3M, > 100 µM (inactive); with SK-MEL-5, > 10 µM (inactive); with SNB-75, > 100 µM (inactive). For the same molecule, the GI50 in the experiment with BT-549 was 36.1 µM (inactive); in the experiment with PC-3, > 100 µM (inactive); with COLO 205, > 100 µM (inactive); in the experiment with DU-145, > 100 µM (inactive); in the experiment on UACC-257, > 100 µM (inactive); in the experiment with NCI/ADR-RES, > 100 µM (inactive). In the experiment on UACC-62, the GI50 was > 100 µM (inactive).
Take `Cc1cc2c(c(C(=O)NCC(=O)N[C@@H](C)C(=O)OCc3ccccc3)c1)Oc1c(cc(C)cc1C(=O)NCC(=O)N[C@@H](C)C(=O)OCc1ccccc1)S2`: the GI50 was > 100 µM (inactive) with MDA-MB-435; 23 µM (inactive) in the experiment with K562; > 100 µM (inactive) in the experiment with SK-OV-3; > 100 µM (inactive) in the experiment with SNB-19; 22 µM (inactive) in the experiment with OVCAR-3; greater than 100 µM with HCT-15. For the same molecule, the GI50 in the experiment on OVCAR-4 was > 100 µM (inactive); in the experiment with Malme-3M, 16.1 µM (inactive); with SK-MEL-5 it was > 100 µM (inactive); in the experiment with SNB-75 it was 15.8 µM (inactive); in the experiment with BT-549, > 100 µM (inactive); in the experiment on PC-3, > 100 µM (inactive). The GI50 with COLO 205 is > 100 µM (inactive); with DU-145, > 100 µM (inactive); in the experiment on UACC-257, > 100 µM (inactive); in the experiment on NCI/ADR-RES, > 100 µM (inactive); in the experiment with UACC-62, 30.8 µM (inactive).
Turning to `O=C(O)c1ccccc1/C=N\N(CCO)C1=NCCN1`, the GI50 in the experiment on MDA-MB-435, with K562, with SK-OV-3, in the experiment on TK-10, in the experiment with SNB-19 and in the experiment with OVCAR-3 was > 100 µM (inactive) throughout. Besides, the GI50 with HCT-15 is greater than 100 µM; with OVCAR-4 it was > 100 µM (inactive); in the experiment on SF-539, > 100 µM (inactive); in the experiment on Malme-3M it was > 100 µM (inactive); with SK-MEL-5, > 100 µM (inactive); with SNB-75, 93.1 µM (inactive). The GI50 with BT-549, with PC-3, in the experiment with COLO 205, in the experiment on DU-145 and in the experiment on UACC-62 was > 100 µM (inactive) each time.
Consider `CC12C(=O)CC(CC1=O)C2(C)C`, for which the GI50 in the experiment on K562, in the experiment on SK-OV-3, with TK-10, in the experiment with NCI-H522, in the experiment with SNB-19 and in the experiment on OVCAR-3 was > 100 µM (inactive) in each case. Also, the GI50 in the experiment with HCT-15 was greater than 100 µM; in the experiment with OVCAR-4 it was > 100 µM (inactive); with Malme-3M it was > 100 µM (inactive); in the experiment with SK-MEL-5, > 100 µM (inactive); with SNB-75 it was > 100 µM (inactive); in the experiment on BT-549, > 100 µM (inactive). Also, the GI50 in the experiment with PC-3, with COLO 205, with DU-145, in the experiment on UACC-257, in the experiment with NCI/ADR-RES and with UACC-62 was > 100 µM (inactive) throughout.
As to `O=[N+]([O-])C(C=C(n1nnc2ccccc21)n1nnc2ccccc21)=C(n1nnc2ccccc21)n1nnc2ccccc21`, the GI50 was > 100 µM (inactive) with MDA-MB-435; 42.3 µM (inactive) in the experiment on K562; > 100 µM (inactive) in the experiment with SK-OV-3; > 100 µM (inactive) in the experiment on TK-10; 0.975 µM (active) in the experiment on SNB-19; > 100 µM (inactive) in the experiment on OVCAR-3. The GI50 with HCT-15 was greater than 100 µM; in the experiment with SF-539 it was > 100 µM (inactive); in the experiment on Malme-3M, > 100 µM (inactive); with BT-549, > 100 µM (inactive); in the experiment with PC-3 it was > 100 µM (inactive); in the experiment with COLO 205 it was > 100 µM (inactive). Besides, the GI50 in the experiment with DU-145, with NCI/ADR-RES and in the experiment on UACC-62 was > 100 µM (inactive) in each case.
`COc1ccc2c(c1)C/C(=C\c1ccc(O)c(OC)c1)C2=O`: the GI50 in the experiment with K562 is > 100 µM (inactive); in the experiment on SK-OV-3, > 100 µM (inactive); in the experiment on TK-10, > 100 µM (inactive); in the experiment on SNB-19, > 100 µM (inactive); with OVCAR-3, > 100 µM (inactive); with HCT-15 it was greater than 100 µM. Also, the GI50 with OVCAR-4 was > 100 µM (inactive); in the experiment with SF-539, > 100 µM (inactive); in the experiment with SK-MEL-5, > 10 µM (inactive); with SNB-75, 46 µM (inactive); in the experiment with BT-549, > 100 µM (inactive); in the experiment on PC-3 it was > 100 µM (inactive). The GI50 in the experiment with NCI/ADR-RES and in the experiment with UACC-62 was > 100 µM (inactive) each time.
As to `NC1CC(=O)c2sc(I)cc21` (configuration not stated), the GI50 in the experiment on MDA-MB-435 was 88.7 µM (inactive); in the experiment on K562 it was 74 µM (inactive); with SK-OV-3 it was > 100 µM (inactive); in the experiment on TK-10 it was > 100 µM (inactive); in the experiment on SNB-19, > 100 µM (inactive); in the experiment with OVCAR-3, > 100 µM (inactive). For the same molecule, the GI50 with HCT-15 is 35.8 µM; with SF-539 it was > 100 µM (inactive); in the experiment with Malme-3M, > 100 µM (inactive); in the experiment on SK-MEL-5, > 100 µM (inactive); in the experiment with SNB-75, > 100 µM (inactive); in the experiment on BT-549 it was > 100 µM (inactive). Also, the GI50 with PC-3, with COLO 205, with DU-145, with UACC-257, with NCI/ADR-RES and with UACC-62 was > 100 µM (inactive) each time.
Turning to `Cc1ccc(S[C@@](C=O)(NC(=O)OCc2ccccc2)C(F)(F)F)cc1`, the GI50 in the experiment with MDA-MB-435 is 28.8 µM (inactive); in the experiment with K562 it was 28.6 µM (inactive); in the experiment on SK-OV-3, 45 µM (inactive); in the experiment on SNB-19, 21 µM (inactive); with OVCAR-3, 42 µM (inactive); with HCT-15 it was 22.9 µM. For the same molecule, the GI50 with OVCAR-4 is 44.9 µM (inactive); in the experiment on SF-539 it was 24.7 µM (inactive); in the experiment with Malme-3M, 26.4 µM (inactive); with SK-MEL-5 it was 23.7 µM (inactive); in the experiment on SNB-75, 22.5 µM (inactive); with BT-549, 28.4 µM (inactive). Besides, the GI50 was 18.6 µM (inactive) with PC-3; 17 µM (inactive) in the experiment with COLO 205; 21.7 µM (inactive) with DU-145; 36.8 µM (inactive) in the experiment with UACC-257; 21.4 µM (inactive) with NCI/ADR-RES; 19.3 µM (inactive) in the experiment on UACC-62.
